Data reported in patent US20250313546A1, “NUCLEIC ACID BINDERS” (UNIVERSITY OF STRATHCLYDE, priority 2022, published 2025).
Values after ≈ are worked out from the molar mass of the structure shown. Like-named read-outs stand apart in the source and are kept apart here.

Experiments:
[1] = system: Enterococcus faecalis (ATCC 51299); test: Antibacterial MIC, broth microdilution (CLSI); type: cell-based; conditions: for MIC80: Enterococcus faecalis, ATCC51299, read-out: MIC80 E. faecalis; for E. faecalis Selectivity Indices, Group: SI, IC50 (μM)/MIC80 (μM), HEK293 cytotoxicity
T. equiperdum = test: Resazurin-based (Alamar blue) drug sensitivity assay; conditions: Trypanosoma equiperdum, read-out: IC50 T. equiperdum
[2] = system: PolyAU double stranded RNA; test: Fluorescence intercalator displacement (FID) assay, SYBR-safe probe; conditions: 20 μM compound, 30° C., lower % = stronger binding
How it was run: (§1)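 Compound at 20 μM mixed with 3.76 ng/mL polyAU dsRNA or salmon genomic dsDNA and 12500-fold diluted SybrSafe in 1 mM phosphate buffer pH 7.4, then heated to 30 °C and fluorescence read. Reduction is expressed as normalised %, with nucleic acid plus probe as maximum and probe alone as minimum.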

[3] = system: Genomic double stranded DNA (salmon); test: as above; conditions: 20 μM compound, 30° C., lower % = stronger binding
How it was run: as §1

[4] = system: Staphylococcus aureus (ATCC 43300); test: Antibacterial MIC, broth microdilution (CLSI); type: cell-based; conditions: for MIC80: Staphylococcus aureus, ATCC43300, read-out: MIC80 S. aureus; for S. aureus Selectivity Indices, Group / S. aureus Selectivity Index (SI): SI, IC50 (μM)/MIC80 (μM), HEK293 cytotoxicity; for S. aureus Selectivity Index (SI): numeric value
T. evansi AntTat 3/3 = test: Resazurin-based (Alamar blue) drug sensitivity assay; conditions: read-out: IC50 T. evansi
[5] = system: Escherichia coli (ATCC 25922); test: Antibacterial MIC, broth microdilution (CLSI); type: cell-based; conditions: Escherichia coli, ATCC25922; read-out: MIC80 E. coli
C. neoformans (F10025) = conditions: Cryptococcus neoformans, read-out: MIC99 C. neoformans
[6] = system: Rhizopus arrhizus (NEQAS12.35321); conditions: read-out: MIC99 Rhizopus arrhizus
Candida auris (H.17.157) = conditions: for MIC99: Candidozyma auris, read-out: MIC99 Candida auris; for C. auris Selectivity Indices, Group: SI, IC50 (μM)/MIC99 (μg/mL), HEK293 cytotoxicity, Alkyl Amidines and NH Pyrroles
[7] = system: Candida glabrata (ACPF3309); conditions: for MIC99: Nakaseomyces glabratus, read-out: MIC99 Candida glabrata; for C. glabrata Selectivity Indices, Group: SI, IC50 (μM)/MIC99 (μg/mL), HEK293 cytotoxicity, Alkyl Amidines and NH Pyrroles
[8] = system: A. fumigatus A1160 (MFIG001); conditions: Aspergillus fumigatus, read-out: MIC99 A. fumigatus A1160
Protocol: The Minimum Inhibitory Concentration (MIC, at 99% inhibition) of the compounds was determined using the broth microdilution method as recommended by EUCAST (EUCAST Definitive Document E.DEF 9.3.2, Method for the determination of broth dilution minimum inhibitory concentrations of antifungal agents for conidia forming moulds and EUCAST Definitive Document E.DEF 7.3.2 Method for the determination of broth dilution minimum inhibitory concentrations of antifungal agents for yeasts).

T. vaginalis = test: Trichomonas resorufin assay; type: cell-based; conditions: for IC50: Trichomonas vaginalis, read-out: IC50 T. vaginalis
[9] = system: SARS-CoV-2 (hCoV-19/Australia/VIC01/2020); test: SARS-CoV-2 microplaque inhibition assay in Vero-E6 cells; type: cell-based; conditions: for SARS-CoV-2 Selectivity Indices, Group: SI, IC50 (μM)/IC50 (μM), HEK293 cytotoxicity, Alkyl Amidines and NH Pyrroles
[10] = SI, IC50 (μM)/IC50 (μM), HEK293 cytotoxicity, Alkyl Amidines and NH Pyrroles

Compound	MIC80 [1] [µM]	% Normalised Fluorescence with polyAU RNA [2] [%]	% Normalised Fluorescence with gDNA [3] [%]	MIC80 [4] [µM]	MIC80 [5] [µM]	MIC99 (C. neoformans (F10025)) [µg/mL]	E. faecalis Selectivity Indices, Group ([1]; Alkyl Amidines and NH Pyrroles)	MIC99 [6] [µg/mL]	MIC99 (Candida auris (H.17.157)) [µg/mL]	MIC99 [7] [µg/mL]	MIC99 [8] [µg/mL]	T. vaginalis Selectivity Indices, Group (T. vaginalis; [10])	S. aureus Selectivity Indices, Group ([4]; Alkyl Amidines and NH Pyrroles)	IC50 (T. vaginalis) [µM]	C. glabrata Selectivity Indices, Group [7]	SARS-CoV-2 Selectivity Indices, Group [9]	other results
Cn1cc(NC(=O)c2ccc(/C=C/c3ccc4nonc4c3)cc2)cc1C(=O)Nc1c[nH]c(C(=O)NCCN2CCOCC2)c1 [IIIb1, (E)-4-(4-(2-(benzo[c][1,2,5]oxadiazol-5-yl)vinyl)benzamido)-1-methyl-N-(5-((2-morpholinoethyl)carbamoyl)-1H-pyrrol-3-yl)-1H-pyrrole-2-carboxamide]	> 100	30	47	5 to 25 (≈ 3.04 to 15.2 µg/mL)	> 100	–	–	–	–	–	–	–	–	–	–	–	IC50 (T. equiperdum): 0.01 to 0.1 µM; IC50 (T. evansi AntTat 3/3): 0.01 to 0.1 µM
Cn1cc(NC(=O)c2cc(NC(=O)c3ccc(/C=C/c4cnc5ccccc5c4)cc3)cn2C)cc1C(=O)NCCC1CCCCC1 [IVa3, (E)-N-(2-cyclohexylethyl)-1-methyl-4-(1-methyl-4-(4-(2-(quinolin-3-yl)vinyl)benzamido)-1H-pyrrole-2-carboxamido)-1H-pyrrole-2-carboxamide]	> 100	–	–	25 to 100 (≈ 15.7 to 62.9 µg/mL)	> 100	–	–	–	–	–	–	–	–	–	–	–	IC50 (T. equiperdum): 0.1 to 1 µM; IC50 (T. evansi AntTat 3/3): 0.1 to 1 µM
CCNC(=N)CCNC(=O)c1cc(NC(=O)c2cc(NC(=O)c3ccc(/C=C/c4ccc(OC)cc4)nc3)cn2C)cn1C [Ia24, (E)-N-(5-((5-((3-(ethylamino)-3-iminopropyl)carbamoyl)-1-methyl-1H-pyrrol-3-yl)carbamoyl)-1-methyl-1H-pyrrol-3-yl)-6-(4-methoxystyryl)nicotinamide]	–	4	1	< 5	> 100	5 to 25 (≈ 8.38 to 41.9 µM)	C (Group C: 5 < SI <= 10)	> 50	> 50	5 to 25 (≈ 8.38 to 41.9 µM)	25 to 50 (≈ 41.9 to 83.8 µM)	D (Group D: SI > 32)	–	–	–	–	T. vaginalis Selectivity Index (SI) (T. vaginalis; SI, IC50 (μM)/IC50 (μM), HEK293 cytotoxicity, numeric value): 69
[H]/N=C(\CCNC(=O)c1cc(NC(=O)c2cc(NC(=O)c3ccc(C=Cc4ccc(N(C)C)cc4)nc3)cn2C)cn1C)NCCCCCCCCC [Ia32, (E)-6-(4-(dimethylamino)styryl)-N-(5-((5-((3-imino-3-(nonylamino)propyl)carbamoyl)-1-methyl-1H-pyrrol-3-yl)carbamoyl)-1-methyl-1H-pyrrol-3-yl)nicotinamide]	> 100	23	67	< 5	> 100	5 to 25 (≈ 7.06 to 35.3 µM)	–	> 50	> 50	5 to 25 (≈ 7.06 to 35.3 µM)	> 50	–	C (Group C: 5 < SI <= 10)	> 50	–	–	–
CCCCNC(=N)CCNC(=O)c1cc(NC(=O)c2cc(NC(=O)c3ccc(/C=C/c4cnc5ccccc5c4)cc3)cn2C)cn1C [Ia34, (E)-N-(3-(butylamino)-3-iminopropyl)-1-methyl-4-(1-methyl-4-(4-(2-(quinolin-3-yl)vinyl)benzamido)-1H-pyrrole-2-carboxamido)-1H-pyrrole-2-carboxamide]	5 to 25 (≈ 3.22 to 16.1 µg/mL)	6	7	< 5	> 100	25 to 50 (≈ 38.8 to 77.5 µM)	–	> 50	> 50	5 to 25 (≈ 7.75 to 38.8 µM)	> 50	–	D (D: SI > 10)	1 to 5	–	–	S. aureus Selectivity Index (SI) [4]: 15
CCCCCNC(=N)CCNC(=O)c1cc(NC(=O)c2cc(NC(=O)c3ccc(/C=C/c4cnc5ccccc5c4)cc3)cn2C)cn1C [Ia35, (E)-N-(3-imino-3-(pentylamino)propyl)-1-methyl-4-(1-methyl-4-(4-(2-(quinolin-3-yl)vinyl)benzamido)-1H-pyrrole-2-carboxamido)-1H-pyrrole-2-carboxamide]	5 to 25 (≈ 3.29 to 16.5 µg/mL)	3	21	< 5	> 100	25 to 50 (≈ 37.9 to 75.9 µM)	–	> 50	> 50	5 to 25 (≈ 7.59 to 37.9 µM)	> 50	–	–	1 to 5	–	–	–
Cn1cc(NC(=O)c2cc(NC(=O)c3ccc(/C=C/c4cnc5ccccc5c4)cc3)cn2C)cc1C(=O)NCCC(=N)N1CCCCC1 [Ib1, (E)-N-(3-imino-3-(piperidin-1-yl)propyl)-1-methyl-4-(1-methyl-4-(4-(2-(quinolin-3-yl)vinyl)benzamido)-1H-pyrrole-2-carboxamido)-1H-pyrrole-2-carboxamide]	< 5	12	23	< 5	> 100	5 to 25 (≈ 7.61 to 38.1 µM)	–	25 to 50 (≈ 38.1 to 76.1 µM)	> 50	< 5	5 to 25 (≈ 7.61 to 38.1 µM)	–	D (D: SI > 10)	–	–	–	S. aureus Selectivity Index (SI) [4]: 11; IC50 (T. vaginalis; resorufin assay): 1 to 5 µM
[H]/N=C(\CCNC(=O)c1cc(NC(=O)c2cc(NC(=O)c3ccc(C=Cc4ccc5nonc5c4)cc3)cn2C)cn1C)N1CCCCC1 [Ib2, (E)-4-(4-(2-(benzo[c][1,2,5]oxadiazol-5-yl)vinyl)benzamido)-N-(5-((3-imino-3-(piperidin-1-yl)propyl)carbamoyl)-1-methyl-1H-pyrrol-3-yl)-1-methyl-1H-pyrrole-2-carboxamide]	< 5	3	12	< 5	> 100	5 to 25 (≈ 7.72 to 38.6 µM)	–	5 to 25 (≈ 7.72 to 38.6 µM)	> 50	< 5	5 to 25 (≈ 7.72 to 38.6 µM)	–	–	< 1	–	–	–
COc1cccc(/C=C/c2ccc(C(=O)Nc3cc(C(=O)Nc4cc(C(=O)NCCN5CCOCC5)n(C)c4)n(C)c3)cc2)c1 [Ref-1, reference compound]	–	–	–	–	–	–	A (Group A: SI < 3)	–	–	–	–	A (Group A: SI < 8)	A (Group A: SI < 3)	–	A (Group A: SI < 12)	A (Group A: SI < 4.1)	C. auris Selectivity Indices, Group (Candida auris (H.17.157)): A (Group A: SI < 0.4)
COc1ccc(/C=C/c2ccc(C(=O)Nc3cc(C(=O)Nc4cc(C(=O)NCCN5CCOCC5)n(C)c4)n(C)c3)cn2)cc1 [Ref-2, reference compound]	–	–	–	–	–	–	A (Group A: SI < 3)	–	–	–	–	A (Group A: SI < 8)	A (Group A: SI < 3)	–	A (Group A: SI < 12)	A (Group A: SI < 4.1)	C. auris Selectivity Indices, Group (Candida auris (H.17.157)): A (Group A: SI < 0.4)
Cn1cc(NC(=O)c2cc(NC(=O)c3ccc(/C=C/c4cnc5ccccc5c4)cc3)cn2C)cc1C(=O)NCCN1CCOCC1 [Ref-3, (E)-1-methyl-4-(1-methyl-4-(4-(2-(quinolin-3-yl)vinyl)benzamido)-1H-pyrrole-2-carboxamido)-N-(2-morpholinoethyl)-1H-pyrrole-2-carboxamide, reference compound]	–	–	–	–	–	–	A (Group A: SI < 3)	–	–	–	–	A (Group A: SI < 8)	A (Group A: SI < 3)	–	A (Group A: SI < 12)	A (Group A: SI < 4.1)	E. faecalis Selectivity Indices, Group ([1]; Amides): A (Group A: SI < 0.4); S. aureus Selectivity Indices, Group ([4]; Amides): A (Group A: SI < 1.4); C. auris Selectivity Indices, Group (Candida auris (H.17.157)): A (Group A: SI < 0.4); T. vaginalis Selectivity Indices, Group (T. vaginalis; SI, IC50 (μM)/IC50 (μM), HEK293 cytotoxicity, Amides): A (Group A: SI < 0.25)
COc1cccc(/C=C/c2ccc(C(=O)Nc3cc(C(=O)Nc4cc(C(=O)NCCC(=N)N)n(C)c4)n(C)c3)cc2)c1 [Ref-5, reference compound]	–	–	–	–	–	–	A (Group A: SI < 3)	–	–	–	–	A (Group A: SI < 8)	A (Group A: SI < 3)	–	A (Group A: SI < 12)	A (Group A: SI < 4.1)	–
CCN(CC)CCCC(C)Nc1ccnc2cc(Cl)ccc12 (stereo not drawn) [chloroquine diphosphate, reference compound]	–	–	–	–	–	–	–	–	–	–	–	–	–	–	–	–	IC50 ([9]; Severe acute respiratory syndrome coronavirus 2, Vero C1008, read-out: IC50 SARS-CoV-2 infectious viral foci): 0.641 µM
